Laboratory results published in patent publication US7601365B2, “Synergetic effects of HGF and antibacterial treatment” (Damavand Wound, AB, priority 2000, dated 2009).
Values joined by “and” are separate entries in the source; they are usually repeats but may differ in a detail not shown here. Equal entries are not always repeated. Marks after values point to notes of the source that are not given here.

Legend:
[1] = test system: spontaneous fungal infections and ulcers; assay: Mice with spontaneous fungal infections and ulcers, Gentiana violet with or without rhHGF; format: in vivo; conditions: local Gentiana violet once; the HGF mouse also rhHGF 10 ng subcutaneously
Description: Two mice (23-25 g) with spontaneous fungal infections and ulcers on their backs were shaved and treated locally with Gentiana violet once. One of them was simultaneously treated with hepatocyte growth factor (rhHGF) 10 ng subcutaneously. The hair growth was fine as in the other places of body, in the mouse that received HGF and fungicidal treatment. […] This example confirms the morphogenic effects of HGF in recovering after treated infectious injuries (see FIG. 7).

[2] = test system: normal hairless skin in mice; assay: Local rhHGF on shaved normal hairless skin in mice, hair growth; format: in vivo
Description: Eighteen black mice (14-16 weeks old and 21-29 g weight) were shaved on their back, causing two 1×1 cm patches on the right and left side. They were then divided into 3 groups. Group I (n=6, females), Group 2 (n=6 males) and Group 3 (n=6, 3 males and 3 females). Group 1 were treated locally on the right side by 0.70 μg/kg (12-18 ng/cm^2 hairless skin) recombinant human hepatocyte growth factor (rhHGF) daily in 10 days. In order to prepare HGF preparations, recombinant human HGF (rhHGF) was provided commercially from R&D systems Inc., Minneapolis, USA. Group 2 (n=6 males) received 0.35 μg/kg/day (5-10 ng/cm^2 hairless skin) on the right side in 10 days. Group 3, non-treated, served as the control group. […] Although some significant differences were not obviously seen in the hair growth under treatment we were surprised to see that the animals in Group 1 did show a full double-sided hair growth in 5 animals 2 days after the treatment was ended (day 12). The same process in Group 2 and group 3 did take much a longer time (day 20 and day 21, respectively).

chronic leg ulcers [3] = format: in vivo, human
Description: HGF in gel form was applied locally once daily for seven days in 15 of 19 chronic leg ulcers in eleven elderly patients in a pilot study. All patients had previously been treated with conventional methods and their leg ulcers had been in a rather stable condition for between one and fourteen years. Any signs of allergy, discomfort or pain were reported daily.
(§1) Micro-circulation perfusion in ulcers compared to the intact contiguous skin was determined at the beginning, after one week and after three months (in 7 patients) and ulcer size and characteristics were also documented.
In contrast to the patients with unfavourable healing (non-responders) the healing process in the responders began during treatment and continued afterwards. There was a statistically significant correlation (r=0.94, p<0.002) between enhanced micro-circulation and ulcer area reduction in the treated ulcers. Simultaneously antibacterial treatment in the ulcers with signs of infection enhanced the therapy results considerably. […] Micro-circulatory perfusion, which might reflect the angiogenic effect of HGF, was positively correlated to ulcer area reduction. Local treatment by HGF seems to have positive effect on nearby, not locally treated, ulcers indicating systemic effects. […] HGF and representative antibacterial treatment have synergetic effects in treatment of chronic leg ulcers.

chronic leg ulcers [4] = assay: Micro-circulatory perfusion in ulcers by laser Doppler (LDPI); format: in vivo, human
Description: The micro-circulation within the ulcers was measured using LDPI. The LDPI system (PIMLO, Lisca Development AB, Sweden) utilises the Doppler principle by freely impinging coherent laser light onto the tissue and processing the backscattered, Doppler broadened, light to estimate the tissue perfusion without touching the skin. The perfusion estimate is proportional to the product of the mean velocity and the concentration of the moving blood cells.
as §1

CCL-53.1 = assay: Restitution of scraped confluent monolayer; format: cell-based
Description: The confluent monolayer of CCL-53.1 was scraped off, forming long wounds. The area not covered by cells finally disappeared, and restitution (in control medium with 15% horse serum and 2.5 % FBS) was completed at 72 h. The addition of HGF together with the addition of antibiotic agent (streptomycin and penicillin) to the culture medium improved the restitution of the damaged area more rapidly than the control medium (10 times at 24 h) as well as to a medium including HGF without added antibiotic agents.

human skin fibroblasts = conditions: more than 1.0 ng/ml of HGF added to cultures media; cited from earlier work
[5] = contiguous non-treated ulcer in a locally treated patient, up to three months

CN(C)c1ccc(C(=C2C=CC(=[N+](C)C)C=C2)c2ccc(N(C)C)cc2)cc1.[Cl-] [Gentiana violet, reference compound]
Quality of hair growth [1]: rough and irregular

HGF: recombinant human HGF (rhHGF) provided commercially from R&D systems Inc., Minneapolis, USA
Signs of non-tolerance or diseases under or after treatment ([2]; 0.70 or 0.35 μg/kg/day locally, 10 days): None of the treated animals did show any sign of non-tolerance or diseases | Day of full double-sided hair growth ([2]; Group 1: 0.70 μg/kg locally daily in 10 days, in 5 animals): 12 days | Day of full double-sided hair growth ([2]; Group 2: 0.35 μg/kg/day locally in 10 days): 20 days | Local dose that accelerates hair growth ([2]; normal hairless skin in mice): not less than 0.7 μg/kg | Heal % (T), median (chronic leg ulcers [3]; 11 patients): 84% | Heal % (NT), first listed non-treated ulcer (chronic leg ulcers [3]; [5]): 100/100% and 100% | Heal % (NT), second listed non-treated ulcer (chronic leg ulcers [3]; [5]): 100/100% and 92% | Signs of allergy or malignancy (chronic leg ulcers [3]; human, in vivo): No signs of allergy or malignancy were observed | Patients with complete or partial healing (chronic leg ulcers [3]; local HGF treatment, ulcers incurable for up to fourteen years): 8/11 | Cases with complete cure of ulcers (chronic leg ulcers [3]; local HGF with appropriate oral antibiotics at the same time): at least 4 cases | Heal % (NT), mean, first listed ulcer (chronic leg ulcers [3]; non-treated ulcers): 100% | Heal % (NT), mean, second listed ulcer (chronic leg ulcers [3]; non-treated ulcers): 96% | Heal % (NT), median, first listed ulcer (chronic leg ulcers [3]; non-treated ulcers): 100% | Heal % (NT), median, second listed ulcer (chronic leg ulcers [3]; non-treated ulcers): 96% | Course of ulcer after superinfection with resistant bacteria (chronic leg ulcers [3]; one patient with venous insufficiency, no appropriate antibiotics (penicillin allergy)): the ulcer increased dramatically in size | Heal % (T), the two ulcers of patient 7 with different healing (chronic leg ulcers [3]; patient 7): (59-88%)♦ | Heal % (T), mean (chronic leg ulcers [3]; sum of total area reduction divided by sum of total area, 11 patients): 78* % | Ulcers with favourable healing (58-59%) (chronic leg ulcers [3]; treated ulcers): two | Ulcers with excellent healing (84-99%) (chronic leg ulcers [3]; treated ulcers, in four patients): four | Ulcers with complete healing (100% area reduction) (chronic leg ulcers [3]; treated ulcers, in three patients): 5/15 | Ulcers with minimal improvement (25-30%) or relapse (chronic leg ulcers [3]; treated ulcers, three patients): four | Healing of the four contiguous non-treated ulcers (chronic leg ulcers [3]; two patients): three healed completely and one excellent | Circ (NT) ratio, mean (chronic leg ulcers [4]; non-treated ulcers): 0.9/ND ratio | Circ (NT) ratio, median (chronic leg ulcers [4]; non-treated ulcers): 0.9/ND ratio | Circ (T) ratio, mean (chronic leg ulcers [4]; treated ulcers): 1.12 ratio | Circ (T) ratio, median (chronic leg ulcers [4]; treated ulcers): 1.23 ratio | Circ (T) ratio: relative change in local microcirculation (chronic leg ulcers [4]; treated ulcers, before treatment vs one week later, one line per patient): 1.29 ratio and 1.23 ratio and 1.28 ratio and 0.77 ratio and 0.72 ratio and 0.97 ratio and 1.48 ratio | Restitution of the damaged area relative to control medium (CCL-53.1; HGF together with streptomycin and penicillin in the culture medium, at 24 h): 10 times | HGF concentration at which the effect is detectable (CCL-53.1; dose-dependent effect): ≥ 5 ng/mL | DNA synthesis (human skin fibroblasts): doubled | Quality of hair growth [1]: fine
